# Laboratory results as given in patent US20020128258A1, “Therapeutical method involving subcutaneous administration of drugs containing cephalotaxine derivatives” (priority 2001, published 2002).
# “Also recorded” adds a separate entry of the source. Read-outs that look alike come from different tables or passages of the source.
# Legend:
# [1] = tested on: Beagle Dog; test: Subacute toxicity screening of two forms of HHT in one dog; type: in vivo; conditions: for Clinical examination: clinical signs: single subcutaneous injection (hydrochloride day 5, base day 11); for Tolerance (toxicology conclusion): one dog, CIVI 48 hours or subcutaneous injection
# Experimental: Species/Strain: Beagle Dog […]
# treatment 1: Intravenous infusion (IV)
# Treatments 2 and 3: subcutaneous injection (SQ) […]
# treatment 1: continuous Intravenous infusion (CIVI) for 48 hours (days 1 and 2) treatment 2: single subcutaneous (SQ) injection on day 5 treatment 3: single subcutaneous (SQ) injection on day 11
# Duration of treatment: see § administration/day […]
# treatments 1 and 2: sterile isotonic saline solution
# [2] = dog, in vivo, sc
# Experimental: (§1) Comparative Pharmacokinetic Study in Dogs After Subcutaneous Injection of 5 mg/m2 of Hydrochloride and Base Forms of HHT
# (§2) Number of animals/sex/dose: the same dog was used for each treatment
# (§3) treatment 1: 0.25 mg/kg of substance A (HHT-hydrochloride form)
# (§4) treatment 2: 0.25 mg/kg of substance A (HHT-hydrochloride form)
# (§5) treatment 3: 0.25 mg/kg of substance B (HHT-base form)
# (§6) Treatment 3: aqueous solution in 0.5% hydroxyethylcellulose with 0.1% Tween 80
# (§7) Analytical method: HPLC with flourimetric detection
# (§8) Blood samples were collected at time 0, 30, 60, 120, 240, 480 minutes and 24 hours then HHT concentration was determined in plasma by an HPLC method in using a fluorimetric detection.
# [3] = tested on: patient with acute myeloid leukemia / blastic phase of chronic myelogenous leukemia
# Experimental: In addition, this patient was not eligible for bone marrow transplantation. All current good clinical practices and applicable ethical rules were applied. […] Physicians of this institution were experienced with the clinical use of the same formulation by intravenous mode of administration in patients with myeloid leukemias. […] A 5 mg-vial of lyophilized HHT hydrochloride for injection was reconstituted with 2.5 mL of saline water for injection. A volume corresponding to 1 mg of HHT per square meter of body surface area per day divided In two daily subcutaneous injections (2 subcutaneous injections a day) was administered in a short single injection, during a period of nine (9) consecutive days.
# [4] = Comparative pharmacokinetic study in dogs after subcutaneous injection of hydrochloride and base forms of HHT; conditions: dog, 0.25 mg/kg single subcutaneous injection
# Experimental: as §1, §2, §3, §4, §5, §6, §7, §8
# [5] = tested on: patients; conditions: continuous infusion 2.5 mg/m2 daily for 10 to 14 days; cited from earlier work
smiles,measurement,setting,value
COC(=O)C[C@](O)(CCCC(C)(C)O)C(=O)O[C@@H]1C(OC)=C[C@]23CCCN2CCc2cc4c(cc2[C@H]13)OCO4.Cl [HHT hydrochloride],Body weight loss,[1]; after treatment 1: 0.25 mg/kg continuous intravenous infusion 48 hours,1.1 kg
same,Body weight loss,[1]; after treatment 2: 0.25 mg/kg single subcutaneous injection on day 5,0.4 kg
same,"Local tolerance, microscopic examination (histopathology) of skin biopsy","[1]; biopsy taken on day 6, the day after the SQ injection, 0.25 mg/kg",well tolerated at the local level
same,Clinical signs following CIVI,"[1]; one Beagle dog, 0.25 mg/kg, continuous intravenous infusion for 48 hours",No clinical signs
same,Clinical examination: clinical signs,"[1]; one Beagle dog, 0.25 mg/kg","yellowish vomiting, soft feces, transient decrease in activity and hypersalivation"
same,Tolerance (toxicology conclusion),[1]; 0.25 mg/kg,good tolerance
same,Bioavailability of salt form versus base form,[2],considerably higher (triple)
same,Area under the curve (AUC),[2]; 0.25 mg/kg,280 ng·h/mL
same,Calculated rate AUC HHT-hydrochloride/AUC HHT-base,[2]; 0.25 mg/kg,3.24
same,Maximum of concentration in plasma,[2]; 0.25 mg/kg,112 ng/mL
same,Time of maximum of concentration,[2]; 0.25 mg/kg,2 h
same,Local tolerance at the points of injection,"[3]; human, in vivo",no local sign of intolerance
same,Granulocyte count (peripheral blood counts),"[3]; patient #01, SQ 1 mg/m2/day, 9 days",relatively fast decrease
same,"Myelosuppressive effect, post-induction follow-up","[3]; patient #01, SQ 1 mg/m2/day, typical of intravenous HHT 2.5 mg/m2/day",strong myelosuppressive effect
same,Clinical improvements compared with examples 3 and 4,"[3]; patient #03, acute myeloid leukemia",Same clinical improvements as those seen in example 3 and 4
"COC(=O)C[C@](O)(CCCC(C)(C)O)C(=O)O[C@@H]1C(OC)=C[C@]23CCCN2CCc2cc4c(cc2[C@H]13)OCO4 [HHT-base, reference compound]",Clinical examination: clinical signs,"[1]; one Beagle dog, 0.25 mg/kg, 0.25 mg/kg","liquid feces with presence of blood, hypersalivation, decrease in activity, pallor of gingival mucous membranes and decrease in activity; also recorded: liquid feces, hypersalivation, decrease in activity and pallor of gingival mucous membrane"
same,Tolerance (toxicology conclusion),[1]; 0.25 mg/kg,good tolerance
same,"Mortality, time after the beginning of the treatment","[1]; second subcutaneous injection, 0.25 mg/kg, day 11, same dog after earlier treatments",8 h
same,Area under the curve (AUC),[4],86.5 ng·h/mL
same,Maximum of concentration in plasma,[4],18 ng/mL
same,Time of maximum of concentration,[4],0.5 h
"COC(=O)C[C@](O)(CCCC(C)(C)O)C(=O)O[C@@H]1C(OC)=C[C@]23CCCN2CCc2cc4c(cc2[C@H]13)OCO4 [HHT, homoharringtonine]","Cardiovascular complications including hypotensive events and arrythmias, patients affected",[5],less than 5 % of patients
